Bounds are passed on as bounds.

This assay relates to MV4:11 human cancer cell lines. In words: Cellular viability / anti-proliferative activity (CellTiter-Glo). The format is cell-based. The settings on record: MV4-11, 120 h, MV-4-11 cells, 5 day protocol, mean of minimum two replicates, read-out: GI50 on cellular proliferation of MV4:11 human cancer cell lines. Summed up:
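MV-4-11 cells in IMDM/10% FBS, 200 cells per well, exposed 5 days to 22 two-fold dilutions from 30 μM (0.3% DMSO final). Viability read by CellTiter-Glo luminescence; GI50 from sigmoidal dose-response, mean of at least two replicates.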
On the technique in general: Cellular ATP, detected with luciferase, serves as a proxy for viable cell number.

`COc1cc(CN2CCOc3c(cc(Cn4ccccc4=N)cc3-c3ccc(F)cc3C)C2=O)cc(OC)c1` [Example 8, 4-(3,5-Dimethoxybenzyl)-9-(4-fluoro-2-methylphenyl)-7-((2-iminopyridin-1(2H)-yl)methyl)-3,4-dihydrobenzo[f][1,4]oxazepin-5(2H)-one]: the GI50 was found to be 355 nM.
To `Cc1ccnc(CN2CCOc3c(cc(Cn4ccn(C)c4=N)cc3-c3ccc(F)cc3C)C2=O)c1` [Example 11, 9-(4-Fluoro-2-methylphenyl)-7-((2-imino-3-methyl-2,3-dihydro-1H-imidazol-1-yl)methyl)-4-((4-methylpyridin-2-yl)methyl)-3,4-dihydrobenzo[f][1,4]oxazepin-5(2H)-one] belongs 11 nM; to `COc1cc(CN2CCNc3c(cc(Cn4ccn(C)c4=N)cc3-c3ccc(F)cc3C)C2=O)cc(OC)c1` [Example 29, 4-(3,5-Dimethoxybenzyl)-9-(4-fluoro-2-methylphenyl)-7-((2-imino-3-methyl-2,3-dihydro-1H-imidazol-1-yl)methyl)-1,2,3,4-tetrahydro-5H-benzo[e][1,4]diazepin-5-one], 38 nM; to `COc1ccnc([C@H](C)N2CCOc3c(cc(Cn4cnn(C)c4=N)cc3-c3ccc(F)cc3Cl)C2=O)c1` [Example 54, (S)-9-(2-Chloro-4-fluorophenyl)-7-((5-imino-1-methyl-1,5-dihydro-4H-1,2,4-triazol-4-yl)methyl)-4-(1-(4-methoxypyridin-2-yl)ethyl)-3,4-dihydrobenzo[f][1,4]oxazepin-5(2H)-one], 9 nM.
Take `COc1cc(CN2CNc3c(cc(Cn4ccn(C)c4=N)cc3-c3ccc(F)cc3C)C2=O)cc(OC)c1` [Example 23, 3-(3,5-Dimethoxybenzyl)-8-(4-fluoro-2-methylphenyl)-6-((2-imino-3-methyl-2,3-dihydro-1H-imidazol-1-yl)methyl)-2,3-dihydroquinazolin-4(1H)-one]: the GI50 stood at 92 nM.
For the compound `COc1cc(CN2CCOc3c(cc(CNc4ccccn4)cc3-c3ccc(F)cc3C)C2=O)cc(OC)c1` [Example 10, 4-(3,5-Dimethoxybenzyl)-9-(4-fluoro-2-methylphenyl)-7-((pyridin-2-ylamino)methyl)-3,4-dihydrobenzo[f][1,4]oxazepin-5(2H)-one], the GI50 was over 940 nM.
In the case of `COc1cc(Cn2cnc3c(-c4ccc(F)cc4C)cc(Cn4ccoc4=N)cc3c2=O)cc(OC)c1` [Example 19, 3-(3,5-Dimethoxybenzyl)-8-(4-fluoro-2-methylphenyl)-6-((2-iminooxazol-3(2H)-yl)methyl)quinazolin-4(3H)-one], the GI50 was 7980 nM.

The record behind these values is patent US12577227B2, “WDR5 inhibitors and modulators” (Vanderbilt University, priority 2019, dated 2026).
